Results: patent US20210261621A1, “Preparation of Dilipid Polymixins and Use Thereof as Antimicrobial Adjuvants” (priority 2018, published 2021)

What was measured:
S. pneumoniae ATCC 49619 = format: cell-based; settings: S. pneumoniae ATCC 49619
From the text: (§1) Bacterial strains were either obtained from the American Type Culture Collection (ATCC), Canadian National Intensive Care Unit (CAN-ICU) surveillance study or the Canadian Ward Surveillance (CANWARD) study. Strains from both CAN-ICU and CANWARD are isolates recovered from patients diagnosed with a presumed infectious disease that were admitted in a participating medical center across Canada. Efflux-deficient strain PAO200 (lacking MexAB-OprM efflux system) and PA0750 (lacking MexAB-OprM, MexCD-OprJ, MexEF-OprN, MexJK and MexXY efflux systems, and the outer membrane protein OpmH) were kindly gifted by Dr. Ayush Kumar (University of Manitoba).
(§2) The in vitro antibacterial activity of the compounds studied were assessed by broth microdilution susceptibility testing following CLSI guidelines. Bacterial cultures were grown overnight prior to the assay. The overnight grown cultures were diluted in saline to 0.5 McFarland turbidity, followed by 1:50 dilution in Mueller-Hinton broth (MHB) for inoculation to a final concentration of approximately 5×10^5 colony forming units/mL. Testing was performed on 96-well plates where the tested compounds were 2-fold serially diluted in MHB and incubated with equal volumes of bacterial inoculum at 37° C. for 18 h. […] Wells containing MHB with or without bacterial cells were used as positive or negative control, respectively.

E. faecium ATCC 27270 = format: cell-based; settings: E. faecium ATCC 27270
From the text: as §1, §2

E. faecalis ATCC 29212 = format: cell-based; settings: E. faecalis ATCC 29212
From the text: as §1, §2

S. aureus ATCC 29213 = format: cell-based, Staphylococcus aureus; settings: S. aureus ATCC 29213
From the text: as §1, §2

MRSA ATCC 33592 = format: cell-based, Staphylococcus aureus; settings: MRSA ATCC 33592 (methicillin-resistant Staphylococcus aureus)
From the text: as §1, §2

[1] = tested on: S. maltophilia CAN-ICU 62584; format: cell-based, Stenotrophomonas maltophilia; settings: S. maltophilia CAN-ICU 62584
From the text: as §1, §2

A. baumannii 92247 = format: cell-based, Acinetobacter baumannii; settings: A. baumannii 92247, colistin-resistant multidrug-resistant isolate
Protocol: (§3) We then addressed the possibility for the dilipid polymyxins to display enhanced antibacterial activity against colistin-resistant Gram-negative pathogens. […] The extended hydrophobic region of the dilipid polymyxin may provide additional hydrophobic interactions to the outer membrane of colistin-resistant organisms. Eight MDR colistin-resistant Gram-negative bacterial isolates were tested, including two E. coli isolates harboring the mcr-1 plasmid-encoded polymyxin resistance gene. We found no difference between the antibacterial activity of dilipid polymyxins and colistin against colistin-resistant Gram-negative bacteria (Table 3).
as §1, §2

E. coli 107115 = format: cell-based, Escherichia coli; settings: E. coli 107115
From the text: as §1, §2

E. coli ATCC 25922 = format: cell-based, Escherichia coli; settings: E. coli ATCC 25922
From the text: as §1, §2

E. coli CAN-ICU 63074 = format: cell-based, Escherichia coli; settings: E. coli CAN-ICU 63074
From the text: as §1, §2

E. coli CAN-ICU 61714 = format: cell-based, Escherichia coli; settings: E. coli CAN-ICU 61714
From the text: as §1, §2

P. aeruginosa 101243 = format: cell-based, Pseudomonas aeruginosa; settings: P. aeruginosa 101243, colistin-resistant multidrug-resistant isolate
Protocol: as §3, §1, §2

P. aeruginosa 114228 = format: cell-based, Pseudomonas aeruginosa; settings: P. aeruginosa 114228, colistin-resistant multidrug-resistant isolate
Protocol: as §3, §1, §2

P. aeruginosa 91433 = format: cell-based, Pseudomonas aeruginosa; settings: P. aeruginosa 91433, colistin-resistant multidrug-resistant isolate
Protocol: as §3, §1, §2

P. aeruginosa PAO750 = settings: P. aeruginosa PAO750, efflux-deficient strain that lacks five pumps and OpmH
MSSE CANWARD-2008 81388 = format: cell-based, Staphylococcus epidermidis; settings: MSSE CANWARD-2008 81388 (methicillin-susceptible Staphylococcus epidermidis)
From the text: as §1, §2

MRSE CAN-ICU 61589 = format: cell-based, S. epidermidis; settings: MRSE CAN-ICU 61589 (methicillin-resistant S. epidermidis)
From the text: as §1, §2

A. baumannii AB031 = format: cell-based, Acinetobacter baumannii; settings: A. baumannii AB031
From the text: as §1, §2

A. baumannii 110193 = format: cell-based, Acinetobacter baumannii; settings: A. baumannii 110193
From the text: as §1, §2

K. pneumoniae 113254 = format: cell-based, Klebsiella pneumoniae; settings: K. pneumoniae 113254, colistin-resistant multidrug-resistant isolate
Protocol: as §3, §1, §2

K. pneumoniae 113250 = format: cell-based, Klebsiella pneumoniae; settings: K. pneumoniae 113250, colistin-resistant multidrug-resistant isolate
Protocol: as §3, §1, §2

K. pneumoniae ATCC 13883 = format: cell-based, Klebsiella pneumoniae; settings: K. pneumoniae ATCC 13883
From the text: as §1, §2

K. pneumoniae 116381 = format: cell-based, Klebsiella pneumoniae; settings: K. pneumoniae 116381
From the text: as §1, §2

colistin [reference compound]
MIC (S. pneumoniae ATCC 49619): 512 µg/mL | MIC (E. faecium ATCC 27270): 256 µg/mL | MIC (E. faecalis ATCC 29212): 256 µg/mL | MIC (S. aureus ATCC 29213): 256 µg/mL | MIC (MRSA ATCC 33592): 512 µg/mL | MIC [1]: 64 µg/mL | MIC (A. baumannii 92247): 4 µg/mL | MIC (E. coli 107115): 0.5 µg/mL | MIC (E. coli ATCC 25922): 0.5 µg/mL | MIC (E. coli CAN-ICU 63074): ≤0.5 µg/mL | MIC (E. coli CAN-ICU 61714): 0.5 µg/mL | MIC (P. aeruginosa 101243): 1024 µg/mL | MIC (P. aeruginosa 114228): 4 µg/mL | MIC (P. aeruginosa 91433): 4 µg/mL | MIC (P. aeruginosa PAO200; P. aeruginosa PAO200, efflux-deficient strain that lacks the MexAB-OprM pump): 0.5 µg/mL | difference in MIC among the three P. aeruginosa strains tested (P. aeruginosa PAO200; PAO1, PAO200, PAO750): no difference | MIC (P. aeruginosa PAO750): 0.5 µg/mL | MIC (MSSE CANWARD-2008 81388): 256 µg/mL | MIC (MRSE CAN-ICU 61589): 128 µg/mL | MIC (A. baumannii AB031): 0.25 µg/mL | MIC (A. baumannii 110193): 0.25 µg/mL | MIC (K. pneumoniae 113254): 256 µg/mL | MIC (K. pneumoniae 113250): 256 µg/mL | MIC (K. pneumoniae ATCC 13883): ≤0.25 µg/mL | MIC (K. pneumoniae 116381): 1 µg/mL
